Data as given in publication PMC5468484 (The Pediatric infectious disease journal, 2017).
“Also recorded” adds a separate entry of the source. Read-outs that look alike come from different tables or passages of the source.

Columns and labels:
[1] = Long term stability of dalbavancin plasma samples; assay type: in vitro ADME, human; conditions: plasma (K2-EDTA), 368 days stored at −20°C, LC-MS/MS
[2] = Safety evaluation; assay type: in vivo, human
[3] = human plasma; cited from earlier work
[4] = cited from earlier work
[5] = test system: acute bacterial skin and skin structure infections; conditions: adults, cited from earlier work
[6] = clinical; conditions: human, in vivo, iv
[7] = test system: cytochrome P450 isoenzymes; conditions: cited from earlier work
[8] = for Terminal half-life: study DUR001-106, single IV dose, post-hoc slope of gamma phase, three compartment model, median (range)
[9] = among the 36 treatment-emergent AEs
[10] = children 3 months to 11 years (N=34)
[11] = children 3 months to 11 years, single IV dose
[12] = nonparametric bootstrap (N=1000) of final model
[13] = three-compartment model, 43 subjects, typical value at weight 40.9 kg

For `CN[C@H]1C(=O)N[C@@H]2Cc3ccc(cc3)Oc3cc4cc(c3O[C@@H]3O[C@H](C(=O)O)[C@@H](O)[C@H](O)[C@H]3NC(=O)CCCCCCCCC(C)C)Oc3ccc(cc3Cl)[C@@H](O)[C@@H]3NC(=O)[C@H](NC(=O)[C@@H]4NC(=O)[C@@H](NC2=O)c2cc(cc(O)c2Cl)Oc2cc1ccc2O)c1ccc(O)c(c1)-c1c(O[C@H]2O[C@H](CO)[C@@H](O)[C@H](O)[C@@H]2O)cc(O)cc1[C@@H](C(=O)NCCCN(C)C)NC3=O` [dalbavancin], the “Long term stability of plasma samples” value [1] was “stable”, the “AEs deemed possibly related to dalbavancin treatment” value ([2]; N=1 each) was “rash, diaper dermatitis, urticaria, and asymptomatic hepatic enzyme elevation” and the “Treatment-emergent AEs considered mild” value [2, 9] was 26. For the same compound, the “Treatment-emergent AEs considered moderate” value [2, 9] was 6, the “Treatment-emergent AEs considered severe” value [2, 9] was 4 and the “Number of treatment-emergent AEs” value [2, 10] was 36. The “Serious or severe treatment-emergent AEs considered related to dalbavancin treatment” value [2, 10] was “None and no serious or severe AEs related to treatment”, the “Subjects who experienced a serious AE” value [2, 10] was “Five” and the Deaths [2, 11] was “no deaths were reported”. The Tolerability [2, 11] was “well tolerated”, the “AE probably related to study treatment” value ([2]; one subject) was “infusion site discomfort” and the “Adverse events assessed as possibly or probably related to treatment” value ([2]; out of 36 treatment-emergent adverse events) was “Five”. For the same compound, the “Binding to plasma proteins” value [3] was 93%, the “Volume of distribution at steady-state” value ([4]; adults) was 15.9 L and the “Eliminated as the parent compound in feces and urine” value [4] was ~ 70%. For the same compound, the “Efficacy of single 1500 mg infusion versus the 2-dose regimen” value ([5]; ABSSSI) was “as effective as the 2-dose regimen; also recorded: noninferior to the 2-dose regimen”, the “Efficacy versus intravenous vancomycin with subsequent oral linezolid in ABSSSI” value ([5]; two studies, 2-dose dalbavancin regimen) was “not inferior; also recorded: noninferior” and the clearance [6] was 1.05 mL/h/kg. For the same compound, the clearance ([6]; 10 mg/kg) was 1.23 mL/h/kg, the clearance ([6]; 15 mg/kg) was 0.795 mL/h/kg and the “Substrate, inhibitor or inducer of cytochrome P450 isoenzymes” value [7] was “not a substrate, inhibitor, or inducer”. The Terminal half-life ([8]; 2 years to <6 years (N=11)) was 315 (271–332) h, the Terminal half-life ([8]; 3 months to <2 years (N=11)) was 279 (244–298) h and the Terminal half-life ([8]; 6 to 11 years (N=11)) was 390 (317–490) h. The “Power coefficient of albumin on Vc, final model estimate” value ([8]; (Albumin/3.7)^coefficient) was −0.73, the “Power coefficient of albumin on Vc, bootstrap median” value [8, 12] was −0.72 and the “Power coefficient of weight on volume parameters, bootstrap median” value [8, 12] was 0.95. The “Power coefficient of weight on volume parameters, final model estimate” value ([8]; same coefficient for Vc, Vp1, Vp2, ((Weight in kg)/40.9)^coefficient) was 0.95, the “Vp1 (volume of distribution for peripheral compartment 1), final model estimate” value [8, 13] was 2.90 L and the “Vp2 (volume of distribution for peripheral compartment 2), final model estimate” value [8, 13] was 2.93 L.
